According to paper PMC3698094, “Similarly Potent Inhibition of Adenylyl Cyclase by P-Site Inhibitors in Hearts from Wild Type and AC5 Knockout Mice” (PLoS ONE, 2013):
pEC50, pIC50: −log10 of the molar value.

What was measured:
Test in all cases: radiochemical AC activity assay, […]cAMP from [α-32P]ATP, Sf9 membranes
Type in all cases: biochemical
[1] = target: T1, AC1 (recombinant) (Bos taurus, UniProt P19754); details: read-out: RecombinantACs / AC1
T1 construct: gene ADCY1; recombinant membranous AC1 expressed by baculovirus in Sf9 cells; crude Sf9 membranes
T1 sequence (P19754 whole entry): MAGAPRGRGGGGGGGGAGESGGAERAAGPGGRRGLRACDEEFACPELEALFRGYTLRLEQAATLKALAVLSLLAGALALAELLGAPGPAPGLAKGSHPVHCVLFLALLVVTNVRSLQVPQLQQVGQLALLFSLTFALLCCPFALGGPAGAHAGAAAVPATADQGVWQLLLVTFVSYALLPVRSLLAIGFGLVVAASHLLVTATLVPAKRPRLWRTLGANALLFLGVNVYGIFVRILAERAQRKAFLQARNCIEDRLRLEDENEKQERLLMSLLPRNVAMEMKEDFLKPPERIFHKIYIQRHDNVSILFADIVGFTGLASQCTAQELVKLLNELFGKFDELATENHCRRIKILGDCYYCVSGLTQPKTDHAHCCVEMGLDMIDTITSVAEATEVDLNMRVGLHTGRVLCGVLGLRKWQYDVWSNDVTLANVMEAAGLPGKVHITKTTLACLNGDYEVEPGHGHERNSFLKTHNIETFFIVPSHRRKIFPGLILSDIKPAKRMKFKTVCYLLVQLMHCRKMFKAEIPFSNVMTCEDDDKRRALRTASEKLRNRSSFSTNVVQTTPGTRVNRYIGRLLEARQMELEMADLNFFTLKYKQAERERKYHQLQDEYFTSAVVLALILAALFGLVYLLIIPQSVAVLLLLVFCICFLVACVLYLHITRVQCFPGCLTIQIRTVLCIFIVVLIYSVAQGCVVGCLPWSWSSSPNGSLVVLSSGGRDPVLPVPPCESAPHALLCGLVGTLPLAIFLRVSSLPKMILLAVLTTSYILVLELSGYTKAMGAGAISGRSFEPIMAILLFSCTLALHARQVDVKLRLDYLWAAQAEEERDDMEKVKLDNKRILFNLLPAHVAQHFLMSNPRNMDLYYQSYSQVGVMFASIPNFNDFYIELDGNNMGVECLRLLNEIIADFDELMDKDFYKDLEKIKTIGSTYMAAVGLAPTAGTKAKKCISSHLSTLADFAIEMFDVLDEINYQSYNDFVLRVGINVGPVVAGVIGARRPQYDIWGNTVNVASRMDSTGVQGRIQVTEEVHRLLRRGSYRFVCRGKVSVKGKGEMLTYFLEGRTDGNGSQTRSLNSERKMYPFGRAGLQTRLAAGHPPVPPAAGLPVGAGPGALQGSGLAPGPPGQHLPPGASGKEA

[2] = target: T2, AC5 (recombinant) (Canis lupus, UniProt P30803); details: read-out: RecombinantACs / AC5
T2 construct: gene ADCY5; recombinant membranous AC5 expressed by baculovirus in Sf9 cells; crude Sf9 membranes
T2 sequence (P30803 whole entry): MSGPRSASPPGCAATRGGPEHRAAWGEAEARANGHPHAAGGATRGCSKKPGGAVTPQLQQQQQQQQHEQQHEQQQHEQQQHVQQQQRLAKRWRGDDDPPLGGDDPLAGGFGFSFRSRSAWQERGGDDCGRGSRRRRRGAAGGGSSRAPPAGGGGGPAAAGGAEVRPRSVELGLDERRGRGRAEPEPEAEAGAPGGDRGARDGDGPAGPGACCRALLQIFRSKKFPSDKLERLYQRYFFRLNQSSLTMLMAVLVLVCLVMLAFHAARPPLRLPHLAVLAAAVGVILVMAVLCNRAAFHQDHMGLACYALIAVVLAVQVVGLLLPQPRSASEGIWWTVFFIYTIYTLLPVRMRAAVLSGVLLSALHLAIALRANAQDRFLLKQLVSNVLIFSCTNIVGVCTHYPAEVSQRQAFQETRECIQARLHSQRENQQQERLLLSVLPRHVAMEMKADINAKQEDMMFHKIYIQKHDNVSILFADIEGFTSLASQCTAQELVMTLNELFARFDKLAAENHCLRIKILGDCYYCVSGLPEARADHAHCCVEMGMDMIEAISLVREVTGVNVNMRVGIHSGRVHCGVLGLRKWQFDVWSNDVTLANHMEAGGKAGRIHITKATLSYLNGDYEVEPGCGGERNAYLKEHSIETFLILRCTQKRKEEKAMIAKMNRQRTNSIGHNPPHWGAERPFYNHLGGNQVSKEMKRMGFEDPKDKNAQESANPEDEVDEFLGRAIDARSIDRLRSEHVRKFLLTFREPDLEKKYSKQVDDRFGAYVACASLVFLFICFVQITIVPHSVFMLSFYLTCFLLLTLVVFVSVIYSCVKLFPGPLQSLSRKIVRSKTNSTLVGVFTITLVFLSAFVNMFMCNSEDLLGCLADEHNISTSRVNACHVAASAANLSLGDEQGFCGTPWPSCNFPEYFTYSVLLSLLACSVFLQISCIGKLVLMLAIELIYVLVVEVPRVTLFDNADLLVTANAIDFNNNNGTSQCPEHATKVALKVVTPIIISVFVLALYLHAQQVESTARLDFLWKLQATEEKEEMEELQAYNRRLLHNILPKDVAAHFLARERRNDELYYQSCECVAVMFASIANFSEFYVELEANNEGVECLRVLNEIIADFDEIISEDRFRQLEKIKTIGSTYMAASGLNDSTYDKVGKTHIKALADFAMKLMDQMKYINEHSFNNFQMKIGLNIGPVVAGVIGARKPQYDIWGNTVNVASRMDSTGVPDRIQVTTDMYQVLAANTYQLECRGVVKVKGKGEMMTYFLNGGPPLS

[3] = target: T3, AC2 (recombinant) (Rattus norvegicus, UniProt P26769); details: read-out: RecombinantACs / AC2
T3 construct: gene Adcy2; recombinant membranous AC2 expressed by baculovirus in Sf9 cells; crude Sf9 membranes
T3 sequence (P26769 whole entry): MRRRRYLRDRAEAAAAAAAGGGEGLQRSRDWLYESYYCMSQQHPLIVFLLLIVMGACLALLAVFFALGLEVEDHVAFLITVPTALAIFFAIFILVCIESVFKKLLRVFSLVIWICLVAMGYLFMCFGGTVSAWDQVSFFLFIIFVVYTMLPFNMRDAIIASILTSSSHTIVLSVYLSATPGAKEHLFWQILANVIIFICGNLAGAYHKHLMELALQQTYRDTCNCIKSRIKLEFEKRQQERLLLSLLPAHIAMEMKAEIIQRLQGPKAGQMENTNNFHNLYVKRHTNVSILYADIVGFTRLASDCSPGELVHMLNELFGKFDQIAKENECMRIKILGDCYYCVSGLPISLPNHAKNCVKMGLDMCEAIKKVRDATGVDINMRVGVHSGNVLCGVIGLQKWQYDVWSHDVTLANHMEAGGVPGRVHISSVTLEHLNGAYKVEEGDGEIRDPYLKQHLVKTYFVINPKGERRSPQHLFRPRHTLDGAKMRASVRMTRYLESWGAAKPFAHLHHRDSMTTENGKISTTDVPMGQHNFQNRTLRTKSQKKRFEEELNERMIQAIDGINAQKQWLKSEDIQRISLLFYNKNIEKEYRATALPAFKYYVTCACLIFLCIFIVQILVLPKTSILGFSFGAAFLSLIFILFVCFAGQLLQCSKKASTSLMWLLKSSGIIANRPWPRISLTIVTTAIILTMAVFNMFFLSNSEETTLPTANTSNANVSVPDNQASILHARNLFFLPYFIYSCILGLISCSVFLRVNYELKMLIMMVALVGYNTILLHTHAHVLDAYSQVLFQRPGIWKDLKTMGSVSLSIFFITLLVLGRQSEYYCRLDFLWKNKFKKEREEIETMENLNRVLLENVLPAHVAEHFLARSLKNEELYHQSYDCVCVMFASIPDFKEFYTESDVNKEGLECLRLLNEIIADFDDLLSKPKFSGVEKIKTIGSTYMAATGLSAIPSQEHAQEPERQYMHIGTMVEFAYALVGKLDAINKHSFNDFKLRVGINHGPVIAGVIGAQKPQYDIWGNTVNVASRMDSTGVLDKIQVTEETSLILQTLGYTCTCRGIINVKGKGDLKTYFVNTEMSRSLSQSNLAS

[4] = target: T2, AC5 (recombinant); details: read-out: Recombinant ACs / AC5
[5] = target: T3, AC2 (recombinant); details: read-out: Recombinant ACs / AC2
[6] = target: T1, AC1 (recombinant); details: read-out: Recombinant ACs / AC1

pEC50 [1]	pEC50 [2]	pEC50 [3]	pIC50 [4]	pIC50 [5]	pIC50 [6]	Structure (SMILES)
5.64	5.24	4.87				C=C[C@@]1(C)CC(=O)[C@]2(O)[C@@]3(C)[C@@H](O)CCC(C)(C)[C@@H]3[C@H](O)[C@H](OC(C)=O)[C@@]2(C)O1 [Forskolin]
			4.09	2.95	3.48	Nc1ncc2c(n1)CC(c1ccco1)CC2=O (stereo not drawn) [NKY80, 2-amino-7-(2-furanyl)-7,8-dihydro-5(6H)-quinazolinone]
			5.02	3.42	3.96	Nc1ncnc2c1ncn2C1CCCO1 (stereo not drawn) [SQ22,536, 9-(tetra-hydro-2-furanyl)-9H-purin-6-amine]
			4.70	3.26	3.86	Nc1ncnc2c1ncn2[C@@H]1O[C@H](CO)[C@@H](O)[C@@H]1O [vidarabine, 9-β-D-arabinosyladenine]
